From patent US5972933A, “Method of treating microbial infections” (Ed. Geistlich Sohne AG Fur Chemische Industrie, priority 1998, dated 1999)
Converted amounts (≈) assume the structure as drawn. Where two headings read alike, the source gives them in different places.

Legend:
bacteria and fungi [1] = experiment: Antimicrobial activity (general statements); type: cell-based
Staph. app. = experiment: Two percent taurolidine solution tested against bacteria, Staph. app. (Example 5); type: cell-based; settings: 5×10^4 CFU/well
Description: (§1) Two percent taurolidine solution was tested against various bacteria at 5×10^4 CFU/well, according to Manual of Clinical Microbiology, 6th edition, P. R. Murray et al., pp. 1334-1335.

Enterococcus faecium = experiment: Taurolidine in vitro susceptibility, E. faecium (Example 4); type: cell-based
Source text: (§2) The in vitro susceptibility to taurolidine of a panel of clinical isolates and reference strains of Enterococcus faecium (n=20,7 strains vancomycin resistant) and Enterococcus faecalis (n-53,5 strains vancomycin resistant) has been examined. […] In all cases, the Minimum Bacteriocidal Concentration (MBC) of taurolidine was within 2 dilutions of the corresponding value for MIC confirming a bactericidal mode of action. In vitro resistance to taurolidine was not observed.

Enterococci = experiment: Taurolidine in vitro susceptibility, Enterococci overall (Example 4); type: cell-based, Enterococcus faecium and Enterococcus faecalis
Source text: as §2

E. faecalis = experiment: Two percent taurolidine solution tested against bacteria, E. faecalis (Example 5); type: cell-based; settings: Enterococcus faecalis, 24 h, 5×10^4 CFU/well, one line per sample (strain)
Description: as §1

E. faecium = experiment: Two percent taurolidine solution tested against bacteria, E. faecium (Example 5); type: cell-based; settings: Enterococcus faecium, 48 h, 5×10^4 CFU/well, one line per sample (strain)
Description: as §1

bacteria and fungi [2] = settings: known antimicrobial substances; cited from earlier work

O=S1(=O)CCN(CN2CCS(=O)(=O)NC2)CN1 [Taurolidine]
in vitro effectiveness against bacterial strains (bacteria and fungi [1]; in vitro, including multi-resistant strains, VRE and MRSA): effective against all gram negative and gram positive bacterial strains tested to-date
in vitro effectiveness against antibiotic-resistant pathogens (bacteria and fungi [1]; in vitro, pathogens resistant to methicillin and vancomycin): fully effective in vitro
antifungal activity (bacteria and fungi [1]; yeast-like and filamentous fungi): useful activity against most yeast-like and filamentous fungi
MBC (Staph. app.; 24 h): 375 µg/mL (≈ 1320 µM)
MIC (Staph. app.; 24 h, read-out: MIC 24 h): 190 µg/mL (≈ 668 µM)
MIC (Staph. app.; 48 h, read-out: MIC 48 h): 250 µg/mL (≈ 879 µM)
MIC (Enterococcus faecium; E. faecium strains, read-out: MIC range): 95 to 375 µg/mL (≈ 334 to 1320 µM)
MBC (Enterococcus faecium; E. faecium, VAN R strains, read-out: MBC, Avg.): 446 µg/mL (≈ 1570 µM)
MBC (Enterococcus faecium; E. faecium, VAN R strains, read-out: MBC, Max.): 500 µg/mL (≈ 1760 µM)
MBC (Enterococcus faecium; E. faecium, VAN R strains, read-out: MBC, Mean): 446 µg/mL (≈ 1570 µM)
MBC (Enterococcus faecium; E. faecium, VAN R strains, read-out: MBC, Median): 500 µg/mL (≈ 1760 µM)
MBC (Enterococcus faecium; E. faecium, VAN R strains, read-out: MBC, Min.): 375 µg/mL (≈ 1320 µM)
MBC (Enterococcus faecium; E. faecium, VAN R strains, read-out: MBC, Mode): 500 µg/mL (≈ 1760 µM)
MIC (Enterococcus faecium; E. faecium, VAN R strains, read-out: MIC, Avg.): 161 µg/mL (≈ 566 µM)
MIC (Enterococcus faecium; E. faecium, VAN R strains, read-out: MIC, Max.): 250 µg/mL (≈ 879 µM)
MIC (Enterococcus faecium; E. faecium, VAN R strains, read-out: MIC, Mean): 161 µg/mL (≈ 566 µM)
MIC (Enterococcus faecium; E. faecium, VAN R strains, read-out: MIC, Median): 95 µg/mL (≈ 334 µM)
MIC (Enterococcus faecium; E. faecium, VAN R strains, read-out: MIC, Min.): 95 µg/mL (≈ 334 µM)
MIC (Enterococcus faecium; E. faecium, VAN R strains, read-out: MIC, Mode): 95 µg/mL (≈ 334 µM)
MBC (Enterococcus faecium; E. faecium, VAN S strains, read-out: MBC, Avg.): 666 µg/mL (≈ 2340 µM)
MBC (Enterococcus faecium; E. faecium, VAN S strains, read-out: MBC, Max.): 1000 µg/mL (≈ 3520 µM)
MBC (Enterococcus faecium; E. faecium, VAN S strains, read-out: MBC, Mean): 666 µg/mL (≈ 2340 µM)
MBC (Enterococcus faecium; E. faecium, VAN S strains, read-out: MBC, Median): 750 µg/mL (≈ 2640 µM)
MBC (Enterococcus faecium; E. faecium, VAN S strains, read-out: MBC, Min.): 500 µg/mL (≈ 1760 µM)
MBC (Enterococcus faecium; E. faecium, VAN S strains, read-out: MBC, Mode): 750 µg/mL (≈ 2640 µM)
MIC (Enterococcus faecium; E. faecium, VAN S strains, read-out: MIC, Avg.): 323 µg/mL (≈ 1140 µM)
MIC (Enterococcus faecium; E. faecium, VAN S strains, read-out: MIC, Max.): 375 µg/mL (≈ 1320 µM)
MIC (Enterococcus faecium; E. faecium, VAN S strains, read-out: MIC, Mean): 323 µg/mL (≈ 1140 µM)
MIC (Enterococcus faecium; E. faecium, VAN S strains, read-out: MIC, Median): 375 µg/mL (≈ 1320 µM)
MIC (Enterococcus faecium; E. faecium, VAN S strains, read-out: MIC, Min.): 125 µg/mL (≈ 440 µM)
MIC (Enterococcus faecium; E. faecium, VAN S strains, read-out: MIC, Mode): 375 µg/mL (≈ 1320 µM)
MBC (Enterococcus faecium; E. faecium, all strains, read-out: MBC, Avg.): 581 µg/mL (≈ 2040 µM)
MBC (Enterococcus faecium; E. faecium, all strains, read-out: MBC, Max.): 1000 µg/mL (≈ 3520 µM)
MBC (Enterococcus faecium; E. faecium, all strains, read-out: MBC, Mean): 581 µg/mL (≈ 2040 µM)
MBC (Enterococcus faecium; E. faecium, all strains, read-out: MBC, Median): 500 µg/mL (≈ 1760 µM)
MBC (Enterococcus faecium; E. faecium, all strains, read-out: MBC, Min.): 375 µg/mL (≈ 1320 µM)
MBC (Enterococcus faecium; E. faecium, all strains, read-out: MBC, Mode): 500 µg/mL (≈ 1760 µM)
MIC (Enterococcus faecium; E. faecium, all strains, read-out: MIC, Avg.): 260 µg/mL (≈ 914 µM)
MIC (Enterococcus faecium; E. faecium, all strains, read-out: MIC, Max.): 375 µg/mL (≈ 1320 µM)
MIC (Enterococcus faecium; E. faecium, all strains, read-out: MIC, Mean): 260 µg/mL (≈ 914 µM)
MIC (Enterococcus faecium; E. faecium, all strains, read-out: MIC, Median): 250 µg/mL (≈ 879 µM)
MIC (Enterococcus faecium; E. faecium, all strains, read-out: MIC, Min.): 95 µg/mL (≈ 334 µM)
MIC (Enterococcus faecium; E. faecium, all strains, read-out: MIC, Mode): 375 µg/mL (≈ 1320 µM)
difference in degree of susceptibility between E. faecalis and E. faecium (Enterococci): no difference in degree of susceptibility
In vitro resistance to taurolidine (Enterococci; E. faecium and E. faecalis): not observed
MBC relative to corresponding MIC (Enterococci; all cases, bactericidal mode of action): ≤ 2 dilutions
difference in MICs or MBCs between strains (Enterococci; vancomycin-sensitive or vancomycin-resistant, various locations across Europe): No differences were noted
MBC (E. faecalis): 500 µg/mL (≈ 1760 µM)
MIC (E. faecium): 250 µg/mL (≈ 879 µM)
antimicrobial spectrum (bacteria and fungi [2]): broad-spectrum activity against aerobic and anaerobic bacteria, mycobacteria and fungi
